Source: patent US7476672B2, “Acetylenic compounds useful in treating inflammatory disorders” (Janssen Pharmaceutica N.V., priority 2002, dated 2009)
pIC50: −log10 of the molar value. Where a name gives a salt, the structure may show the parent alone.

Columns and labels:
[1] = biological target: T1, NADPH-oxidase (Homo sapiens, UniProt P04839); assay: Oxidase Inhibition Assay (PMA-stimulated superoxide-mediated reduction of Cytochrome c, whole cells); assay type: cell-based; details: human neutrophils, PMA 0.5 μM, absorbance at 550 nm
T1 construct: endogenous in cells; host or cells: human neutrophils isolated from buffy coat
T1 sequence (P04839 1-570): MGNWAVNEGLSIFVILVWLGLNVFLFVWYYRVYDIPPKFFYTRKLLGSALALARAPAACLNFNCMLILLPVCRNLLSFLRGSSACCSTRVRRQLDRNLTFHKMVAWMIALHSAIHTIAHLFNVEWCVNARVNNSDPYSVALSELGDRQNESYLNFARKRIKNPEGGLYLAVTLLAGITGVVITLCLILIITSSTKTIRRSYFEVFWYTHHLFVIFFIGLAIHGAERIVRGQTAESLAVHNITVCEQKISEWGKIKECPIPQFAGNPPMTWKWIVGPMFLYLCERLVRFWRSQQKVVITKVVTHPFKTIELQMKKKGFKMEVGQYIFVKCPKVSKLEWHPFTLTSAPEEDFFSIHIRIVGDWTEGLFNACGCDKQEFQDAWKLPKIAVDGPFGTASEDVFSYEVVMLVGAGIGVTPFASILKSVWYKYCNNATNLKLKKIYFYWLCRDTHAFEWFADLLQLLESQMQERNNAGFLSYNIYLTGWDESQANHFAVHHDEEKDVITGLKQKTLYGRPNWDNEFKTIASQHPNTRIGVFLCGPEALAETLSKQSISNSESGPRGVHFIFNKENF
Method: Whole cells (human neutrophils) are incubated with a pro-inflammatory agonist phorbol myristate acetate (PMA) in the presence or absence of test compound to measure the superoxide-mediated reduction of Cytochrome c at 550 nm. Inhibition of the oxidase is determined by a decreased absorbance at 550 nm, in response to test compound, relative to the absorbance seen with a vehicle control.
The buffy coat from one unit of blood is split evenly into four 50 mL tubes. To each tube 30 mL 3% Dextran (in 0.9% NaCl) is added and the tubes are inverted to mix. Tubes are allowed to sit undisturbed for 25 minutes. The resulting supernatant is recovered into four fresh tubes and centrifuged for 10 minutes at 600×g, 4° C. The supernatant is discarded and pellets are resuspended in 35 mL 0.9% saline. 10 mL Ficoll-Paque PLUS (Pharmacia Biotech AB) is layered beneath the cell suspension and centrifuged at 600×g for 40 minutes at room temperature. The supernatant is again discarded and tubes are tapped to loosen the resulting pellets. 20 mL 0.2% ice cold saline is added for 30 seconds followed by 20 mL 1.6% ice cold saline to lyse the remaining erythrocytes in the pellets. The pellets are centrifuged for 10 minutes at 600×g, 4° C., and the supernatant is discarded. The neutrophil pellets are resuspended in HBSS-glucose buffer (1 mg/mL), adding 2.5 mL to each tube for a total volume of 10 mL. The cell suspension is then counted on a hemocytometer.
The cell suspension is diluted to a concentration of 5×10^6/mL in HBSS-glucose and treated with 1 μg/mL Cytochalasin B (5 mg/mL DMSO) for 10 minutes at 37° C. in a shaking water bath. Cells are diluted to 6×10^5 cells/mL in 92 μM Cytochrome C for a final concentration of 5×10^4 cells/well.
The NADPH-oxidase assay is run on a Biomek 2000 workstation. The workstation adds 2.5 μL compound per well from source plates plus 12.5 μL per well 4 μM PMA (agonist). This volume is brought up to 100 μL total per well in the assay plates upon the addition of the prepared cells (85 μL). The final concentration of drug is 25 μM and PMA is 0.5 μM under these conditions.
The QC curve is a dose-response curve (from about 31.25 nM to about 4000 nM) for competitive binding against a known oxidase inhibitor such as DPI (diphenylene iodonium chloride). The format used for each compound tested is as follows:
The plates are incubated for 1 hour at 37° C. without CO2. The plates are then incubated at room temperature for 30 minutes and the absorbance is read at 550 nm.

SMILES	melting point [°C]	pIC50 [1]
CCC(COc1ccc(C#Cc2ccc(Cl)cc2)cc1C)NCc1ccc(CN)cc1 (stereo not drawn) (as salt: HCl) [Compound 23, N-[1-[[4-[(4-chlorophenyl)ethynyl]-2-methylphenoxy]methyl]propyl]-1,4-benzenedimethanamine]	261.5 to 264	
Cc1cc(C#Cc2ccc(Cl)cc2)ccc1OCCNCc1ccc(CNCCN2CCOCC2)cc1 [Compound 16, N^1-[2-[4-[(4-chlorophenyl)ethynyl]-2-methylphenoxy]ethyl]-N^4-[2-(4-morpholinyl)ethyl]-1,4-benzenedimethanamine]		5.58
Cc1cc(C#Cc2ccc(Cl)cc2)ccc1OCCNCc1ccc(CNCCN2CCCC2)cc1 [Compound 14, N^1-[2-[4-[(4-chlorophenyl)ethynyl]-2-methylphenoxy]ethyl]-N^4-[2-(1-pyrrolidinyl)ethyl]-1,4-benzenedimethanamine]		5.63
CC(COc1ccc(C#Cc2ccc(F)cc2)cc1Cl)NCc1ccc(CN)cc1 (stereo not drawn) (as salt: HCl) [Compound 26, N-[2-[2-chloro-4-[(4-fluorophenyl)ethynyl]phenoxy]-1-methylethyl]-1,4-benzenedimethanamine]	> 300	
CN(C)CCCNCc1ccc(CNCCOc2ccc(C#Cc3ccc(Cl)cc3)cc2)cc1 [Compound 7, N^1-[2-[4-[(4-chlorophenyl)ethynyl]phenoxy]ethyl]-N^4-[3-(dimethylamino)propyl]-1,4-benzenedimethanamine]		6.11
Cc1cc(C#Cc2ccc(Cl)cc2)ccc1OCCNCc1ccc(CNCCCN2CCOCC2)cc1 [Compound 15, N^1-[2-[4-[(4-chlorophenyl)ethynyl]-2-methylphenoxy]ethyl]-N^4-[3-(4-morpholinyl)propyl]-1,4-benzenedimethanamine]		5.79
CCCCCCCNCc1ccc(CNCCOc2ccc(C#Cc3ccc(Cl)cc3)cc2C)cc1 [Compound 9, N^1-[2-[4-[(4-chlorophenyl)ethynyl]-2-methylphenoxy]ethyl]-N^4-heptyl-1,4-benzenedimethanamine]		5.18
Cc1ccc(C#Cc2ccc(OCC(C)NCc3ccc(CN)cc3)c(Cl)c2)cc1 (stereo not drawn) (as salt: HCl) [Compound 24, N-[2-[2-chloro-4-[(4-methylphenyl)ethynyl]phenoxy]-1-methylethyl]-1,4-benzenedimethanamine]	> 300	
Cc1cc(C#Cc2ccc(Cl)cc2)ccc1OCCNCc1ccc(CN)cc1 [Compound 21, N-[2-[4-[(4-chlorophenyl)ethynyl]-2-methylphenoxy]ethyl]-1,4-benzenedimethanamine]		5.75
Cc1cc(C#Cc2ccc(Cl)cc2)ccc1OCCNCc1ccc(CNCCCOC(=O)C2CCCCN2)cc1 (stereo not drawn) [Compound 18, 3-[[[4-[[[2-[4-[(4-chlorophenyl)ethynyl]-2-methylphenoxy]ethyl]amino]methyl]phenyl]methyl]amino]propyl ester 2-piperidinecarboxylic acid]		5.52
Cc1cc(C#Cc2ccc(Cl)cc2)ccc1OCCNCc1ccc(CNCCC(C)C)cc1 [Compound 6, N^1-[2-[4-[(4-chlorophenyl)ethynyl]-2-methylphenoxy]ethyl]-N^4-(3-methylbutyl)-1,4-benzenedimethanamine]		5.64
CCCNCc1ccc(CNCCOc2ccc(C#Cc3ccc(Cl)cc3)cc2)cc1 [Compound 2, N^1-[2-[4-[(4-chlorophenyl)ethynyl]phenoxy]ethyl]-N^4-propyl-1,4-benzenedimethanamine]		5.68
Cc1cc(C#Cc2ccc(Cl)cc2)ccc1OCCNCc1ccc(CNCCCc2ccccc2)cc1 [Compound 10, N^1-[2-[4-[(4-chlorophenyl)ethynyl]-2-methylphenoxy]ethyl]-N^4-(3-phenylpropyl)-1,4-benzenedimethanamine]		5.08
CC(C)NCc1ccc(CNCCOc2ccc(C#Cc3ccc(Cl)cc3)cc2)cc1 [Compound 4, N^1-[2-[4-[(4-chlorophenyl)ethynyl]phenoxy]ethyl]-N^4-(1-methylethyl)-1,4-benzenedimethanamine]		5.92
CC(COc1ccc(C#Cc2ccccc2)cc1Cl)NCc1ccc(CN)cc1 (stereo not drawn) [Compound 22, N-[2-[2-chloro-4-(phenylethynyl)phenoxy]-1-methylethyl]-1,4-benzenedimethanamine]		6.07
CC(COc1ccc(C#Cc2ccc(F)cc2)cc1Cl)NCc1ccc(CN)cc1 (stereo not drawn) [Compound 26, N-[2-[2-chloro-4-[(4-fluorophenyl)ethynyl]phenoxy]-1-methylethyl]-1,4-benzenedimethanamine]		5.98
CCCNCc1ccc(CNCCOc2ccc(C#Cc3ccc(Cl)cc3)cc2C)cc1 [Compound 3, N^1-[2-[4-[(4-chlorophenyl)ethynyl]-2-methylphenoxy]ethyl]-N^4-propyl-1,4-benzenedimethanamine]		5.86
CC(COc1ccc(C#Cc2ccc(Cl)cc2)cc1Cl)NCc1ccc(CN)cc1 (stereo not drawn) (as salt: HCl) [Compound 25, N-[2-[2-chloro-4-[(4-chlorophenyl)ethynyl]phenoxy]-1-methylethyl]-1,4-benzenedimethanamine]	> 300	
Cc1cc(C#Cc2ccc(Cl)cc2)ccc1OCCNCc1ccc(CNCc2ccccc2)cc1 [Compound 8, N^1-[2-[4-[(4-chlorophenyl)ethynyl]-2-methylphenoxy]ethyl]-N^4-(phenylmethyl)-1,4-benzenedimethanamine]		5.49
CCCCCCNCc1ccc(CNCCOc2ccc(C#Cc3ccc(Cl)cc3)cc2C)cc1 [Compound 12, N^1-[2-[4-[(4-chlorophenyl)ethynyl]-2-methylphenoxy]ethyl]-N^4-hexyl-1,4-benzenedimethanamine]		4.95
Cc1cc(C#Cc2ccc(Cl)cc2)ccc1OCCNCc1ccc(CNC(C)(C)C)cc1 [Compound 19, N^1-[2-[4-[(4-chlorophenyl)ethynyl]-2-methylphenoxy]ethyl]-N^4-(1,1-dimethylethyl)-1,4-benzenedimethanamine]		5.48
CC(C)CCNCc1ccc(CNCCOc2ccc(C#Cc3ccc(Cl)cc3)cc2)cc1 [Compound 5, N^1-[2-[4-[(4-chlorophenyl)ethynyl]phenoxy]ethyl]-N^4-(3-methylbutyl)-1,4-benzenedimethanamine]		5.66
Cc1cc(C#Cc2ccc(Cl)cc2)ccc1OCC(C)NCc1ccc(CN)cc1 (stereo not drawn) (as salt: HCl) [Compound 1, N-[2-[4-[(4-chlorophenyl)ethynyl]-2-methylphenoxy]-1-methylethyl]-1,4-benzenedimethanamine]	> 300	
CC(COc1ccc(C#Cc2ccc(Cl)cc2)cc1Cl)NCc1ccc(CN)cc1 (stereo not drawn) [Compound 25, N-[2-[2-chloro-4-[(4-chlorophenyl)ethynyl]phenoxy]-1-methylethyl]-1,4-benzenedimethanamine]		6.15
Cc1ccc(C#Cc2ccc(OCC(C)NCc3ccc(CN)cc3)c(Cl)c2)cc1 (stereo not drawn) [Compound 24, N-[2-[2-chloro-4-[(4-methylphenyl)ethynyl]phenoxy]-1-methylethyl]-1,4-benzenedimethanamine]		6.15
CCC(COc1ccc(C#Cc2ccc(Cl)cc2)cc1C)NCc1ccc(CN)cc1 (stereo not drawn) [Compound 23, N-[1-[[4-[(4-chlorophenyl)ethynyl]-2-methylphenoxy]methyl]propyl]-1,4-benzenedimethanamine]		6.10
Cc1cc(C#Cc2ccc(Cl)cc2)ccc1OCC(C)NCc1ccc(CN)cc1 (stereo not drawn) [Compound 1, N-[2-[4-[(4-chlorophenyl)ethynyl]-2-methylphenoxy]-1-methylethyl]-1,4-benzenedimethanamine]		6.15
